Our source for the IC50 and EC50 values is patent EP0726903B1, “MATRIX METALLOPROTEASE INHIBITORS” (SYNTEX (U.S.A.) INC., priority 1993, dated 1995).

Test [1] deals with bovine PTH induced bone resorption. The test can be described thus: In vitro fetal rat long bone model of bone resorption (45Ca release). It is filed as cell-based. To be noted: ^45Ca release from fetal rat long bones, Bovine PTH (1-34) at 1x10^-8M, Day 6. From the text:
An in vitro fetal rat long bone model was used to study the anti-bone resorptive effect of the compounds of formula (I). Bovine PTH was used to induce bone resorption in vitro. The bone resorptive effects were expressed by the amounts of ^45Ca released from the ^45Ca pre-labelled fetal rat long bones into the culture medium. The inhibitory effect of the compounds of formula (I) against bovine PTH induced bone resorption was expressed as mean percent inhibition ± sem.
^45Ca-prelabelled fetal rat long bones (from forearms) were dissected and cultured in Linbro dishes at 37°C overnight BGJb medium, supplemented with lmg/ml BSA. There were five pairs of bones in each group. The compounds of formula (I) were dissolved in ethanol first, then diluted to various concentrations and added simultaneously with Bovine PTH (1-34) at […] on Day 1. […] The assay was terminated on Day 6 with one media change on Day 3.
At the end of each medium change, the ^45Ca present in the culture medium was counted. The remaining bones were digested with 0.1N HCl and the ^45Ca presented in the bone digest was also counted. The results are expressed as % of the total ^45Ca released from each pair of bones. Bovine PTH at 1x10^-8M induces bone resorption to the maximum level which is set as 100% and this concentration was used as standard. The level of base line bone resorption in the presence of medium only was set as 0%. All compound-treated groups were compared with bovine PTH (1-34) at 1x10^-8M.

For the next test, the target named is T1, HFC (Homo sapiens, UniProt P03956).
T1 sequence (P03956 100-469): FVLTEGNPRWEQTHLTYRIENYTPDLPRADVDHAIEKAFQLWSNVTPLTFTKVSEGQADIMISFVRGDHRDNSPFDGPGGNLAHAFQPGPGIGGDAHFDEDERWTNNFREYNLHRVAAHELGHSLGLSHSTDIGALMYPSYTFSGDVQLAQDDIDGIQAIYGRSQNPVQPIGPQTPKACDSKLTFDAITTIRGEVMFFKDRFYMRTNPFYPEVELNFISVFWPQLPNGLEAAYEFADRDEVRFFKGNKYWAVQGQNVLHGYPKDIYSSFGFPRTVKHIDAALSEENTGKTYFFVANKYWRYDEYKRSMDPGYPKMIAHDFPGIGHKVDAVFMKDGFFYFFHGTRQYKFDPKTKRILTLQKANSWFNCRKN
Nature of the test: In vitro enzyme inhibition assay (fluorescence, thiopeptide substrate), HFC. It is filed as biochemical.

In a further test the target is STROM. (Homo sapiens, UniProt P08254). Nature of the test: In vitro enzyme inhibition assay (fluorescence, thiopeptide substrate), STROM. Type of test: biochemical.
Test [2] has as its system release of ^35S-labelled glycosaminoglycans (GAG's) from cartilage explants. The test can be described thus: Inhibition of release of 35S-labelled glycosaminoglycans from cartilage explants. To be noted: Bos taurus; bovine knee joint cartilage explants, release induced by rhIL-1-alpha. Type of test: cell-based. The protocol:
This assay determines if the compounds of formula (I) inhibit the release of ^35S-labelled glycosaminoglycans (GAG's) from cartilage explants.
Small cartilage explants (3 mm diameter) were prepared from freshly sacrificed bovine knee joints and labeled with ^35SO4. ^35S-labelled glycosaminoglycans (GAG's) are released into the culture medium in response to the addition of rhIL-1-alpha, which induces the expression of chondrocyte matrix metalloproteases (MMP's), including stromelysin and collagenase. The percent inhibition of labeled GAG's was corrected for spontaneous release in the absence of rh1L-1-alpha. Results for each group represent the mean ± the S.E.M. for five explants.

Chain of STROM. (P08254 100-477): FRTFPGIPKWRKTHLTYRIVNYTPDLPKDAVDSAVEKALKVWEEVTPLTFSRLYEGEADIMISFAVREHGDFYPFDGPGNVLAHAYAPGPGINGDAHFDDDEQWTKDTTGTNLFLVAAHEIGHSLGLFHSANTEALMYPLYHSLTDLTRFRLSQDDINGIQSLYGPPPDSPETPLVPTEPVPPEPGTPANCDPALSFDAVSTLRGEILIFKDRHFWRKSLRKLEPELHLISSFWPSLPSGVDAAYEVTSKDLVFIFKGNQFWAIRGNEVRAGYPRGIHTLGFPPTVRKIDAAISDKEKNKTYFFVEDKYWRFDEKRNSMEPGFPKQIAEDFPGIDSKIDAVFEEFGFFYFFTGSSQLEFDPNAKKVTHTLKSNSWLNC

Broadly, the IC50 is the concentration needed to halve the response being measured. A high value points to a need for much substance. In turn, `COC(=O)c1ccc(NC(=O)[C@H](CCSC)NC(=O)C(CC(C)C)CP(=O)(O)CSc2ccc3ccccc3n2)cc1` (stereo partly drawn) [Compound 1, N-(2-(hydroxy)(quinolin-2-ylthiomethyl)phosphinoylmethyl-4-methylpentanoyl)-L-methionine-N'-(4-methoxycarbonylphenyl)carboxamide] gave a half-inhibitory concentration (IC50) in test [1] not below 5000 nM. Turning to `COC(=O)c1ccc(NC(=O)[C@H](Cc2c[nH]c3ccccc23)NC(=O)C(CC(=O)NO)CC(C)C)cc1` (single isomer, unassigned) [Compound 3, N-(4-methyl-2-(N"-hydroxycarbamoyl)methylpentanoyl)-L-tryptophan-N'-(4-methoxycarbonylphenyl)carboxamide], it took 50 nM to reach half-maximal inhibition in test [1] (IC50). Same read-out and setting: as for `COC(=O)c1ccc(NC(=O)[C@H](Cc2c[nH]c3ccccc23)NC(=O)C(CC(=O)NO)CC(C)C)cc1` (single isomer, unassigned) [Compound 4, N-(4-methyl-2-(N"-hydroxycarbamoyl)methylpentanoyl)-L-tryptophan-N'-(4-methoxycarbonylphenyl)carboxamide], the figure is not below 5000 nM. One may read the EC50 as the concentration needed to bring the measured effect to its halfway point. Low values mean greater potency, high ones weaker potency. Consider `COC(=O)c1ccc(NC(=O)[C@H](CC(C)C)NC(=O)C(CC(=O)NO)CC(C)C)cc1` (stereo partly drawn) [Compound 2, N-(4-methyl-2-(N"-hydroxycarbamoyl)methylpentanoyl)-L-leucine-N'-(4-methoxycarbonylphenyl)carboxamide], for which the figures for the half-inhibitory concentration (IC50) (at HFC; on STROM.; in test [1] (144 h)) were 8.4 nM, 1.4 nM and 270 nM, respectively. The molecule further displayed an EC50 in test [2] of 3500 nM.
